Measured values from patent US9382228B2 (priority 2013, dated 2016).

Columns and labels:
osteoclast precursors = test: cells; assay type: cell-based; conditions: read-out: Osteoclast assay
Method: Osteoclast Tartrate-Resistant Acid Phosphatase Assay
Diluted compound was transferred to a 384-well black clear bottom plate. Two-thousand five hundred osteoclast precursors (Lonza, Walkersville, Md.) were added per well in growth media containing Receptor Activator of Nuclear Factor Kappa-beta ligand (RANKL) and M-CSF (R&D Systems, Minneapolis, Minn.). […] Tartrate-resistant acid phosphatase activity in the supernatant samples was determined using an acid phosphatase assay kit (Sigma, St. Louis, Mo.). Absorbance was measured at 550 nm using a plate reader. Data was analyzed using Prism software (Graphpad, San Diego, Calif.) to calculate IC50 values.

[1] = target: T1, unphosphorylated c-FMS kinase (uFMS, Seq. ID no. 1) (Homo sapiens, UniProt P07333); test: biochemical; conditions: uFMS, enzymatic assay, ATP 500 μM
T1 sequence (P07333 538-972): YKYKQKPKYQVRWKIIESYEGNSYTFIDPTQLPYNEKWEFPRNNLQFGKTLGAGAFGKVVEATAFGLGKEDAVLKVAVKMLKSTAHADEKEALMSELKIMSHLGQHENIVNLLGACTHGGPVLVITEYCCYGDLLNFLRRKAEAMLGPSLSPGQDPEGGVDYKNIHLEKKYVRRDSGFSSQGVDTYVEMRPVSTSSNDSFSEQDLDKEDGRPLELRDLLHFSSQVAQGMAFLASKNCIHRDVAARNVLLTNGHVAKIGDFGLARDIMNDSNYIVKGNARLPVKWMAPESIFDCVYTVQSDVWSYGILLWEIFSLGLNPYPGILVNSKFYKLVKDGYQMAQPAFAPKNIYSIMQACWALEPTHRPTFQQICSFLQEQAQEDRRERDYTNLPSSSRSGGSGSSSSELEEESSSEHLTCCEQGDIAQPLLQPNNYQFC

[2] = target: unphosphorylated PDGFRβ kinase (uPDGFRβ, Seq. ID No. 3) (Homo sapiens, UniProt P09619); test: biochemical; conditions: uPDGFRb, enzymatic assay, ATP 500 μM
Method: Unphosphorylated PDGFRβ (uPDGFRβ) Kinase (Seq. ID No. 3) Assay
In this assay, the oxidation of NADH (thus the decrease at A340 nm) was continuously monitored spectrophometrically. […] The inhibition reaction was started by mixing serial diluted test compound with the above reaction mixture. The absorption at 340 nm was monitored continuously for 4 h at 30° C. on a Polarstar Optima or Synergy 2 plate reader. The reaction rate was calculated using the 1.5 to 2.5 h time frame. Percent inhibition was obtained by comparison of reaction rate with that of a control (i.e. with no test compound). IC50 values were calculated from a series of percent inhibition values determined at a range of inhibitor concentrations using software routines as implemented in the GraphPad Prism software package.

M-NFS-60 cells = test: cells; conditions: 67 h, read-out: M-NFS-60 cell proliferation
Method: M-NFS-6 Cell Proliferation Assay
A serial dilution of test compound was dispensed into a 384-well black clear bottom plate (Corning, Corning, N.Y.). Two thousand five hundred cells were added per well in 50 μL complete growth medium. […] IC50 values were calculated from a series of percent inhibition values determined at a range of inhibitor concentrations using software routines as implemented in the GraphPad Prism software package.

[3] = target: unphosphorylated c-KIT kinase (uKIT, Seq. ID no. 2) (Homo sapiens, UniProt P10721); test: biochemical; conditions: uKIT, enzymatic assay, ATP 2000 μM
unphosphorylated c-KIT kinase (uKIT, Seq. ID no. 2), sequence (P10721 with tags, fused parts or gaps): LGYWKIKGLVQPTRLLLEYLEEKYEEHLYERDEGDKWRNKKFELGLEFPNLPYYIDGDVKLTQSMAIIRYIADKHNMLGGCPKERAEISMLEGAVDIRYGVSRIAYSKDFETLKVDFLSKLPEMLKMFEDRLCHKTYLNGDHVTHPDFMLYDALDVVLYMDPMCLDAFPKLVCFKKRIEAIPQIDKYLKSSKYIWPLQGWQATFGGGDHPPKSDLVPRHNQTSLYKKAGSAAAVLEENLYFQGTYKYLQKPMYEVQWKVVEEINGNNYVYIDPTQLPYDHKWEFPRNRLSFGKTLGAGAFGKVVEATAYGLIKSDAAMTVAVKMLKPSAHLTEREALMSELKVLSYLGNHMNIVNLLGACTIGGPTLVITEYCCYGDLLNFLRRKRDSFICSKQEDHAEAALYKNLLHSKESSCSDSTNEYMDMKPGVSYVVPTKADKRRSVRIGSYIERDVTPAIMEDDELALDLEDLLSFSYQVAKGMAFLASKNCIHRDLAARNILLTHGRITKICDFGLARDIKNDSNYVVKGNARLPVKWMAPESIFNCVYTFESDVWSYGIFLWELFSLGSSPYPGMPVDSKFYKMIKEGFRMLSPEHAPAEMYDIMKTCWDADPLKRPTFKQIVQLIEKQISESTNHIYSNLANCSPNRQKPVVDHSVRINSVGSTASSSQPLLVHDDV
Method: uKit kinase (Seq. ID No. 2) Assay
In this assay, the oxidation of NADH (thus the decrease at A340 nm) was continuously monitored spectrophometrically. […] The inhibition reaction was started by mixing serial diluted test compound with the above reaction mixture. The absorption at 340 nm was monitored continuously for 4 hours at 30° C. on Synergy 2 plate reader (BioTech).

unphosphorylated PDGFRβ kinase (uPDGFRβ, Seq. ID No. 3), sequence (P09619 557-1106): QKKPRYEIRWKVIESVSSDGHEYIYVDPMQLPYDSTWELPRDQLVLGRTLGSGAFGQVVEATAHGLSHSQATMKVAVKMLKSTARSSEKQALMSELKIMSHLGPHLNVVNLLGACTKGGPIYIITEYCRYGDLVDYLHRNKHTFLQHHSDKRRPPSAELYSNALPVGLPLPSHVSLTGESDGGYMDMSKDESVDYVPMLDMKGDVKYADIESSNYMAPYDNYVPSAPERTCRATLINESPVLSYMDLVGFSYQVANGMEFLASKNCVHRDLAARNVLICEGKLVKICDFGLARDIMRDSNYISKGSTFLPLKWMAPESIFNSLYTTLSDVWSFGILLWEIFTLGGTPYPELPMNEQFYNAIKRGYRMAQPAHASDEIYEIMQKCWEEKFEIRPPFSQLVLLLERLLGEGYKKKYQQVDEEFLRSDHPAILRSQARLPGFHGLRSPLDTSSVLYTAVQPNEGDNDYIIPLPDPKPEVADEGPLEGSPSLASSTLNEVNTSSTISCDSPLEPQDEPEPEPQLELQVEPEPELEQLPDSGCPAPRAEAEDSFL

Row | SMILES | IC50 (osteoclast precursors) [nM] | IC50 [1] [nM] | IC50 [2] [nM] | IC50 [3] [nM] | IC50 (M-NFS-60 cells) [nM]
1 | COCCCC(=O)NC(=O)Nc1ccc(Oc2ccnc(-c3cnn(C)c3)c2)c(C)n1 [Example 25, 4-methoxy-N-((6-methyl-5-((2-(1-methyl-1H-pyrazol-4-yl)pyridin-4-yl)oxy)pyridin-2-yl)carbamoyl)butanamide] |  | 10 to 100 | > 1000 |  | 100 to 1000
2 | Cn1cc(-c2cc(Oc3ccc(NC(=O)NC(=O)C4(C#N)CC4)nc3)ccn2)cn1 [Example 27, 1-cyano-N-((5-((2-(1-methyl-1H-pyrazol-4-yl)pyridin-4-yl)oxy)pyridin-2-yl)carbamoyl)cyclopropanecarboxamide] |  | > 1000 | > 1000 | > 1000 | > 1000
3 | Cc1nc(NC(=O)NC(=O)C2(C#N)CC2)ccc1Oc1ccnc(-c2cnn(C)c2)c1 [Example 28, 1-cyano-N-((6-methyl-5-((2-(1-methyl-1H-pyrazol-4-yl)pyridin-4-yl)oxy)pyridin-2-yl)carbamoyl)cyclopropanecarboxamide] |  | 100 to 1000 | > 1000 | > 1000 | > 1000
4 | Cc1nc(NC(=O)NC(=O)C(C)(C)C#N)ccc1Oc1ccnc(-c2cnn(C)c2)c1 [Example 29, 2-cyano-2-methyl-N-((6-methyl-5-((2-(1-methyl-1H-pyrazol-4-yl)pyridin-4-yl)oxy)pyridin-2-yl)carbamoyl)propanamide] |  | 10 to 100 | > 1000 | > 1000 | 100 to 1000
5 | Cn1cc(-c2cc(Oc3ccc(NC(=O)NC(=O)C(C)(C)C#N)nc3)ccn2)cn1 [Example 30, 2-cyano-2-methyl-N-((5-((2-(1-methyl-1H-pyrazol-4-yl)pyridin-4-yl)oxy)pyridin-2-yl)carbamoyl)propanamide] |  | 100 to 1000 | > 1000 | > 1000 | > 1000
6 | Cc1nc(NC(=O)NC(=O)CN2CCN(C)CC2)ccc1Oc1ccnc(-c2cnn(C)c2)c1 [Example 50, N-((6-methyl-5-((2-(1-methyl-1H-pyrazol-4-yl)pyridin-4-yl)oxy)pyridin-2-yl)carbamoyl)-2-(4-methylpiperazin-1-yl)acetamide] |  | 100 to 1000 |  | > 1000 | > 1000
7 | CC(C)C(=O)NC(=O)Nc1ccc(Oc2ccnc(-c3cnn(C)c3)c2)c(C(F)(F)F)n1 [Example 82, N-((5-((2-(1-methyl-1H-pyrazol-4-yl)pyridin-4-yl)oxy)-6-(trifluoromethyl)pyridin-2-yl)carbamoyl)isobutyramide] | 100 to 1000 |  |  |  | 
8 | CCC(=O)NC(=O)Nc1ccc(Oc2ccnc(-c3cnc(C)s3)c2)cn1 [Example 98, N-((5-((2-(2-methylthiazol-5-yl)pyridin-4-yl)oxy)pyridin-2-yl)carbamoyl)propionamide] | 100 to 1000 |  |  |  | 
9 | Cc1ncc(-c2cc(Oc3ccc(NC(=O)NC(=O)C4CCOC4)nc3)ccn2)s1 (stereo not shown) [Example 115, N-((5-((2-(2-methylthiazol-5-yl)pyridin-4-yl)oxy)pyridin-2-yl)carbamoyl)tetrahydrofuran-3-carboxamide] | 10 to 100 | 10 to 100 |  | > 1000 | 100 to 1000
10 | COC1(C(=O)NC(=O)Nc2ccc(Oc3ccnc(-c4cnc(C)s4)c3)c(C)n2)CC1 [Example 122, 1-methoxy-N-((6-methyl-5-((2-(2-methylthiazol-5-yl)pyridin-4-yl)oxy)pyridin-2-yl)carbamoyl)cyclopropanecarboxamide] | 10 to 100 | 10 to 100 |  | > 1000 | 100 to 1000
11 | CCC(=O)NC(=O)Nc1ccc(Oc2ccnc(-n3cnc(C)c3)c2)cn1 [Example 128, N-((5-((2-(4-methyl-1H-imidazol-1-yl)pyridin-4-yl)oxy)pyridin-2-yl)carbamoyl)propionamide] | 100 to 1000 | 100 to 1000 |  | > 1000 | > 1000
12 | Cc1ncc(-c2cc(Oc3ccc(NC(=O)NC(=O)C4CCOCC4)nc3C)ccn2)s1 [Example 129, N-((6-methyl-5-((2-(2-methylthiazol-5-yl)pyridin-4-yl)oxy)pyridin-2-yl)carbamoyl)tetrahydro-2H-pyran-4-carboxamide] | 10 to 100 | 10 to 100 |  | > 1000 | 100 to 1000
13 | COC(C)(C)C(=O)NC(=O)Nc1ccc(Oc2ccnc(-c3ccc(C4CCN(C)CC4)cc3)c2)c(C)n1 [Example 133, 2-methoxy-2-methyl-N-((6-methyl-5-((2-(4-(1-methylpiperidin-4-yl)phenyl)pyridin-4-yl)oxy)pyridin-2-yl)carbamoyl)propanamide] | 10 to 100 | < 10 |  | 10 to 100 | < 10
14 | Cc1cn(-c2cc(Oc3ccc(NC(=O)NC(=O)C4CCOCC4)nc3C)ccn2)cn1 [Example 142, N-((6-methyl-5-((2-(4-methyl-1H-imidazol-1-yl)pyridin-4-yl)oxy)pyridin-2-yl)carbamoyl)tetrahydro-2H-pyran-4-carboxamide] | 10 to 100 | 10 to 100 |  | 100 to 1000 | 100 to 1000
15 | COC1(C(=O)NC(=O)Nc2ccc(Oc3ccnc(-n4cnc(C)c4)c3)cn2)CC1 [Example 143, 1-methoxy-N-((5-((2-(4-methyl-1H-imidazol-1-yl)pyridin-4-yl)oxy)pyridin-2-yl)carbamoyl)cyclopropanecarboxamide] | 10 to 100 | 10 to 100 |  | 100 to 1000 | 100 to 1000
16 | Cc1cn(-c2cc(Oc3ccc(NC(=O)NC(=O)C4(C)CCC4)nc3C)ccn2)cn1 [Example 147, 1-methyl-N-((6-methyl-5-((2-(4-methyl-1H-imidazol-1-yl)pyridin-4-yl)oxy)pyridin-2-yl)carbamoyl)cyclobutanecarboxamide] | 10 to 100 |  |  |  | 
17 | COC1(C(=O)NC(=O)Nc2ccc(Oc3ccnc(-c4cnn(C)c4)c3)c(C)n2)CCCC1 [Example 150, 1-methoxy-N-((6-methyl-5-((2-(1-methyl-1H-pyrazol-4-yl)pyridin-4-yl)oxy)pyridin-2-yl)carbamoyl)cyclopentanecarboxamide] | 10 to 100 |  | 100 to 1000 | 10 to 100 | 

More lines, main results first:

Row | IC50 (osteoclast precursors) [nM] | IC50 [1] [nM] | IC50 [2] [nM] | IC50 [3] [nM] | SMILES | IC50 (M-NFS-60 cells) [nM]
18 | < 10 | < 10 | 10 to 100 |  | Cn1cc(-c2cc(Oc3ccc(NC(=O)NC(=O)C4CC(C)(C)C4)nc3)ncn2)cn1 [Example 5, 3,3-dimethyl-N-((5-((6-(1-methyl-1H-pyrazol-4-yl)pyrimidin-4-yl)oxy)pyridin-2-yl)carbamoyl)cyclobutanecarboxamide] | < 10
19 | 10 to 100 |  | 100 to 1000 |  | Cc1cc(-c2cc(Oc3ccc(NC(=O)NC(=O)C4CC(C)(C)C4)nc3C)ccn2)on1 [Example 14, 3,3-dimethyl-N-((6-methyl-5-((2-(3-methylisoxazol-5-yl)pyridin-4-yl)oxy)pyridin-2-yl)carbamoyl)cyclobutanecarboxamide] | 
20 | < 10 |  |  |  | CC(C)C(=O)NC(=O)Nc1ccc(Oc2ccnc(-c3cnn(C)c3)c2)cn1 [Example 24, N-((5-((2-(1-methyl-1H-pyrazol-4-yl)pyridin-4-yl)oxy)pyridin-2-yl)carbamoyl)isobutyramide] | 
21 | < 10 |  |  | 100 to 1000 | Cn1cc(-c2cc(Oc3ccc(NC(=O)NC(=O)C4CC5CCC4O5)nc3)ccn2)cn1 (stereo not shown) [Example 111, N-((5-((2-(1-methyl-1H-pyrazol-4-yl)pyridin-4-yl)oxy)pyridin-2-yl)carbamoyl)-7-oxabicyclo[2.2.1]heptane-2-carboxamide] | 
22 | < 10 |  |  |  | Cc1ccc(-c2cc(Oc3ccc(NC(=O)NC(=O)C4(C)CC4)nc3)ccn2)cn1 [Example 114, 1-methyl-N-((5-((6′-methyl-[2,3′-bipyridin]-4-yl)oxy)pyridin-2-yl)carbamoyl)cyclopropanecarboxamide] | 
23 | < 10 |  |  |  | Cc1ncc(-c2cc(Oc3ccc(NC(=O)NC(=O)C4(C)CC4)nc3)ccn2)s1 [Example 121, 1-methyl-N-((5-((2-(2-methylthiazol-5-yl)pyridin-4-yl)oxy)pyridin-2-yl)carbamoyl)cyclopropanecarboxamide] | 
24 | < 10 |  |  | 100 to 1000 | COC1(C(=O)NC(=O)Nc2ccc(Oc3ccnc(-c4ccc(C5CCN(C)CC5)cc4)c3)c(C)n2)CC1 [Example 144, 1-methoxy-N-((6-methyl-5-((2-(4-(1-methylpiperidin-4-yl)phenyl)pyridin-4-yl)oxy)pyridin-2-yl)carbamoyl)cyclopropanecarboxamide] | 
25 | < 10 |  |  |  | COC1(C(=O)NC(=O)Nc2ccc(Oc3ccnc(-c4cnn(C)c4)c3)cn2)CCCC1 [Example 153, 1-methoxy-N-((5-((2-(1-methyl-1H-pyrazol-4-yl)pyridin-4-yl)oxy)pyridin-2-yl)carbamoyl)cyclopentanecarboxamide] | 
